Consider 53 compounds from US8309558B2, “Compounds for the treatment of hepatitis C” (Bristol-Myers Squibb Company, priority 2008, dated 2012).

As usually defined, the EC50 is the midpoint of the concentration-response curve.

Each structure is given as a SMILES string.

For the first experiment, the system named is HCV replicon cells. The experiment can be described thus: HCV replicon FRET / luciferase assay (96-well plates). Type of experiment: cell-based. The conditions noted are these: Hepatitis C virus, 24 h, Table 1d (class symbols); HCV replicon; read-out: EC50. The source says:
FRET Assay Preparation. To perform the HCV FRET screening assay, 96-well cell culture plates were used. The FRET peptide (Anaspec, Inc.) (Taliani et al., Anal. Biochem. 1996, 240, 60-67) contains a fluorescence donor, EDANS, near one end of the peptide and an acceptor, DABCYL, near the other end. The fluorescence of the peptide is quenched by […] resonance energy transfer (RET) between the donor and the acceptor, but as the NS3 protease cleaves the peptide the products are released from RET quenching and the fluorescence of the donor becomes apparent. The assay reagent was made as follows: 5× cell Luciferase cell culture lysis reagent from Promega (#E153A) diluted to 1× with dH2O, NaCl added to 150 mM final, the FRET peptide diluted to 20 μM final from a 2 mM stock.
To prepare plates, HCV replicon cells, with or without a Renilla luciferase reporter gene, were trypsinized and placed into each well of a 96-well plate with titrated test compounds added in columns 3 through 12; columns 1 and 2 contained a control compound (HCV protease inhibitor), and the bottom row contained cells without compound. The plates were then placed in a CO2 incubator at 37° C.
Assays. Subsequent to addition of the test compounds described above (FRET Assay Preparation), at various times the plate was removed and Alamar blue solution (Trek Diagnostics, #00-100) was added per well as a measure of cellular toxicity. After reading in a Cytoflour 4000 instrument (PE Biosystems), plates were rinsed with PBS and then used for FRET assay by the addition of 30 ul of the FRET peptide assay reagent described above (FRET Assay Preparation) per well. The plate was then placed into the Cytoflour 4000 instrument which had been set to 340 excite/490 emission, automatic mode for 20 cycles and the plate read in a kinetic mode. Typically, the signal to noise using an endpoint analysis after the reads was at least three-fold. Alternatively, after Alamar blue reading, plates were rinsed with PBS, 50 ul of DMEM (high glucose) without phenol red was added and plates were then used for luciferase assay using the Promega Dual-Glo Luciferase Assay System.
Compound analysis was determined by quantification of the relative HCV replicon inhibition and the relative cytotoxicity values. To calculate cytoxicity values, the average Alamar Blue fluorescence signals from the control wells were set as 100% non-toxic. The individual signals in each of the compound test wells were then divided by the average control signal and multiplied by 100% to determine […]. To calculate the HCV replicon inhibition values, an average background value was obtained from the two wells containing the highest amount of HCV protease inhibitor at the end of the assay period. These numbers were similar to those obtained from naïve Huh-7 cells.
The background numbers were then subtracted from the average signal obtained from the control wells and this number was used as 100% activity. The individual signals in each of the compound test wells were then divided by the averaged control values after background subtraction and multiplied by 100% to determine percent activity. EC50 values for a protease inhibitor titration were calculated as the concentration which caused a 50% reduction in FRET or luciferase activity. The two numbers generated for the compound plate, percent cytoxicity and percent activity were used to determine compounds of interest for further analysis.
(Replicon systems follow genome replication, usually without infectious particles.)
As to `CNC(=O)c1c(-c2ccc(F)cc2)oc2ccc(-c3cc(C(=O)NC4(c5ccccn5)CC4)c(OCC#N)cc3C)cc12`, the EC50 lay in the range of 1 to 250 nM.
With `CNC(=O)c1c(-c2ccc(F)cc2)oc2ccc(-c3cc(C(=O)NC4(c5cncnc5)CC4)c(OC)cc3C)cc12`, the 50% effective concentration (EC50) was in the range of 1 to 250 nM.
As for `CCCCOc1cc(C)c(-c2ccc3oc(-c4ccc(F)cc4)c(C(=O)NC)c3c2)cc1C(=O)NC1(c2ccccn2)CC1`, the EC50 lay in the range of 1 to 250 nM.
Consider `CNC(=O)c1c(-c2ccc(F)cc2)oc2ccc(-c3cc(C(=O)NC4(c5ccccn5)CC4)c(OCCC(C)C)cc3C)cc12`, for which the EC50 lay in the range of 1 to 250 nM.
As for `CNC(=O)c1c(-c2ccc(F)cc2)oc2ccc(-c3cc(C(=O)NC4(c5ccccn5)CC4)c(OCCN(C)C)cc3C)cc12`, the EC50 lay within 1 to 250 nM.
On to `CNC(=O)c1c(-c2ccc(F)cc2)oc2ccc(-c3cc(C(=O)NC4(c5ccccn5)CC4)c(OCCCN(C)C)cc3C)cc12`, for which the EC50 was 1 to 250 nM.
On to `CNC(=O)c1c(-c2ccc(F)cc2)oc2ccc(-c3cc(C(=O)NC4(c5ccccn5)CC4)c(OC4CCC4)cc3C)cc12`, for which the EC50 lay within 1 to 250 nM.
For the compound `CNC(=O)c1c(-c2ccc(F)cc2)oc2ccc(-c3cc(C(=O)NC4(c5ccccn5)CC4)c(OC4CCCCC4)cc3C)cc12`, the concentration for a half-maximal effect (EC50) fell in the range of 1 to 250 nM.
Consider `CNC(=O)c1c(-c2ccc(F)cc2)oc2ccc(-c3cc(C(=O)NC4(c5ccccn5)CC4)c(OCCCOC)cc3C)cc12`, for which the EC50 is 1 to 250 nM.
Same read-out and setting: the figure for `CNC(=O)c1c(-c2ccc(F)cc2)oc2ccc(-c3cc(C(=O)NC4(c5ccccn5)CC4)c(OCCC4CC4)cc3C)cc12` is 1 to 250 nM; for `CNC(=O)c1c(-c2ccc(F)cc2)oc2ccc(-c3cc(C(=O)NC4(c5ccccn5)CC4)c(OCc4ccccc4)cc3C)cc12` it is 1 to 250 nM.
Consider `CNC(=O)c1c(-c2ccc(F)cc2)oc2ccc(-c3cc(C(=O)NC4(c5ccccn5)CC4)c(OCc4ccccc4Cl)cc3C)cc12`, for which the half-maximal effective concentration (EC50) fell in the range of 1 to 250 nM.
Consider `CNC(=O)c1c(-c2ccc(F)cc2)oc2ccc(-c3cc(C(=O)NC4(c5ccccn5)CC4)c(OCc4cccc(Cl)c4)cc3C)cc12`, for which the EC50 was 1 to 250 nM.
Regarding `CNC(=O)c1c(-c2ccc(F)cc2)oc2ccc(-c3cc(C(=O)NC4(c5ccccn5)CC4)c(OCc4ccc(Cl)cc4)cc3C)cc12`, the EC50 is 1 to 250 nM.
The same measure, in the same setting: the figure for `CNC(=O)c1c(-c2ccc(F)cc2)oc2ccc(-c3cc(C(=O)NC4(c5ccccn5)CC4)c(OCCc4ccccc4)cc3C)cc12` is 1 to 250 nM.
Consider `CNC(=O)c1c(-c2ccc(F)cc2)oc2ccc(-c3cc(C(=O)NC4(c5ccccn5)CC4)c(OCCc4ccc(OC)cc4)cc3C)cc12`, for which the concentration giving a half-maximal response (EC50) is 1 to 250 nM.
As for `CNC(=O)c1c(-c2ccc(F)cc2)oc2ccc(-c3cc(C(=O)NC4(c5ccccn5)CC4)c(OCCc4ccc(N(C)C)cc4)cc3C)cc12`, the EC50 was 1 to 250 nM.
With `CNC(=O)c1c(-c2ccc(F)cc2)oc2ccc(-c3cc(C(=O)NC4(c5ccccn5)CC4)c(OC4CCOCC4)cc3C)cc12`, the EC50 was in the range of 1 to 250 nM.
As to `CNC(=O)c1c(-c2ccc(F)cc2)oc2ccc(-c3cc(C(=O)NC4(c5ccccn5)CC4)c(OCc4ccccn4)cc3C)cc12`, the EC50 lay within 1 to 250 nM.
Turning to `CNC(=O)c1c(-c2ccc(F)cc2)oc2ccc(-c3cc(C(=O)NC4(c5ccccn5)CC4)c(OCc4cccnc4)cc3C)cc12`, the EC50 was 1 to 250 nM.
`CNC(=O)c1c(-c2ccc(F)cc2)oc2ccc(-c3cc(C(=O)NC4(c5ccccn5)CC4)c(OCC4CCOC4)cc3C)cc12` (centres unmarked): the EC50 lay in the range of 1 to 250 nM.
Same read-out and setting: then `CNC(=O)c1c(-c2ccc(F)cc2)oc2ccc(-c3cc(C(=O)NC4(c5ccccn5)CC4)c(OCCn4ccnc4)cc3C)cc12`, with 1 to 250 nM; and `CNC(=O)c1c(-c2ccc(F)cc2)oc2ccc(-c3cc(C(=O)NC4(c5ccccn5)CC4)c(OCCN4CCN(C)CC4)cc3C)cc12`, with 1 to 250 nM; and `CNC(=O)c1c(-c2ccc(F)cc2)oc2ccc(-c3cc(C(=O)NC4(c5ccccn5)CC4)c(OCc4ccncc4)cc3C)cc12`, with 1 to 250 nM.
Take `CNC(=O)c1c(-c2ccc(F)cc2)oc2ccc(-c3cc(C(=O)NC4(c5ncoc5C)CC4)ccc3C)cc12`: the EC50 lay in the range of 1 to 250 nM.
Turning to `CNC(=O)c1c(-c2ccc(F)cc2)oc2ccc(-c3cc(C(=O)NC4(C(=O)Nc5nc(C)no5)CC4)c(OC)cc3C)cc12`, the EC50 lay within 1 to 250 nM.
For `CNC(=O)c1c(-c2ccc(F)cc2)oc2ccc(-c3cc(C(=O)NC4(c5ccccn5)CC4)c(OCC4CCCCO4)cc3C)cc12` (centres unmarked), the half-maximal effective concentration (EC50) lay in the range of 1 to 250 nM.
In the case of `CNC(=O)c1c(-c2ccc(F)cc2)oc2ccc(-c3cc(C(=O)NC(C)(C)C)ccc3OC)c(F)c12`, the EC50 was in the range of 1 to 250 nM.
As for `CNC(=O)c1c(-c2ccc(F)cc2)oc2ccc(-c3cc(C(=O)NC4(c5nc(C)cc(C)n5)CC4)ccc3C)c(F)c12`, the EC50 lay in the range of 1 to 250 nM.
As for `CNC(=O)c1c(-c2ccc(F)cc2)oc2ccc(-c3cc(C(=O)NC4(c5ncc(C)cn5)CC4)ccc3C)c(F)c12`, the EC50 lay in the range of 1 to 250 nM.
With `CNC(=O)c1c(-c2ccc(F)cc2)oc2ccc(-c3cc(C(=O)NC4(c5cccnn5)CC4)ccc3C)cc12`, the EC50 was 1 to 250 nM.
Turning to `CNC(=O)c1c(-c2ccc(F)cc2)oc2ccc(-c3cc(C(=O)NC4(c5cnn(C)c5)CC4)ccc3C)cc12`, the EC50 was 1 to 250 nM.
For `CNC(=O)c1c(-c2ccc(F)cc2)oc2ccc(-c3cc(C(=O)NC4(c5nccc(C)n5)CC4)ccc3C)c(F)c12`, the EC50 was in the range of 1 to 250 nM.
Consider `CNC(=O)c1c(-c2ccc(F)cc2)oc2ccc(-c3cc(C(=O)NC4(c5ncc(F)cn5)CC4)ccc3C)c(F)c12`, for which the EC50 was in the range of 1 to 250 nM.

Still in this experiment, the particulars now being: Hepatitis C virus, Table 1a; HCV replicon; read-out: EC50.
`CNC(=O)c1c(-c2ccc(F)cc2)oc2ccc(OCC(=O)NCc3ccco3)cc12`: the EC50 fell in the range of 1000 to 10000 nM.
For `CNC(=O)c1c(-c2ccc(F)cc2)oc2ccc(OCC(=O)NCc3nc4ccccc4s3)cc12`, the EC50 lay in the range of 1000 to 10000 nM.

The experiment is the same for the next values; noted with them: Hepatitis C virus, Table 1b; HCV replicon; read-out: EC50.
As to `CCOc1ccc(C(=O)NCC(C)C)cc1-c1ccc2oc(-c3ccc(F)cc3)c(C(=O)NC)c2c1`, the concentration for a half-maximal effect (EC50) was under 250 nM.
Consider `CNC(=O)c1c(-c2ccc(F)cc2)oc2ccc(-c3ccc(-c4cccnc4)c(C(=O)NCC(C)C)c3)cc12`, for which the EC50 was under 250 nM.
As for `CCOc1cccc(-c2ccc(-c3ccc4oc(-c5ccc(F)cc5)c(C(=O)NC)c4c3)cc2C(=O)NCC(C)C)c1`, the EC50 was under 250 nM.
Take `CNC(=O)c1c(-c2ccc(F)cc2)oc2ccc(-c3ccc(CCC(C)C)c(C(=O)NCC(C)C)c3)cc12`: the EC50 was over 10000 nM.
On the same count and under the same terms, the figure for `CNC(=O)c1c(-c2ccc(F)cc2)oc2ccc(-c3ccc(-c4cccc(C(=O)O)c4)c(C(=O)NCC(C)C)c3)cc12` is 1000 to 10000 nM; for `CNC(=O)c1c(-c2ccc(F)cc2)oc2ccc(-c3cc(C(=O)NCC(C)C)ccc3OCCN(Cc3ccccc3)Cc3ccccc3)cc12` it is 1000 to 10000 nM; for `CNC(=O)c1c(-c2ccc(F)cc2)oc2cc(N(CCO)S(C)(=O)=O)c(-c3cccc(C(=O)NC(C)(C)c4ccncc4)c3)cc12` it is under 250 nM.
For the compound `CNC(=O)c1c(-c2ccc(F)cc2)oc2cc(N(CCO)S(C)(=O)=O)c(-c3cccc(C(=O)NC(C)(C)c4ccnc(C)c4)c3)cc12`, the EC50 was under 250 nM.
On to `CNC(=O)c1c(-c2ccc(F)cc2)oc2ccc(-c3cccc(C(=O)NC(C)(C)c4ccccn4)c3)cc12`, for which the EC50 is under 250 nM.
As for `CNC(=O)c1c(-c2ccc(F)cc2)oc2ccc(-c3cccc(C(=O)NC(C)(C)c4cccc(C)n4)c3)cc12`, the concentration for a half-maximal effect (EC50) was in the range of 250 to 1000 nM.
Take `CNC(=O)c1c(-c2ccc(F)cc2)oc2cc(NS(C)(=O)=O)c(/C=C/C(=O)OC(C)(C)C)cc12`: the EC50 was in the range of 1000 to 10000 nM.
For the compound `CNC(=O)c1c(-c2ccc(F)cc2)oc2ccc(-c3cc(C(=O)NCC(C)C)ccc3OCCCN3C(=O)c4ccccc4C3=O)cc12`, the EC50 is over 10000 nM.
As to `CNC(=O)c1c(-c2ccc(F)cc2)oc2ccc(-c3cc(C(=O)NC4(c5ccccn5)CC4)ccc3C3CC3)cc12`, the EC50 is over 10000 nM.
On the same count and under the same terms, the figure for `CNC(=O)c1c(-c2ccc(F)cc2)oc2ccc(-c3cc(C(=O)O)ccc3OC(F)(F)F)cc12` is over 10000 nM.
For `CNC(=O)c1c(-c2ccc(F)cc2)oc2ccc(-c3cc(C(=O)NC4(c5noc(-c6ccccc6)n5)CC4)ccc3C)cc12`, the EC50 was under 250 nM.
Take `CNC(=O)c1c(-c2ccc(F)cc2)oc2ccc(-c3cc(C(=O)NC4(c5noc(C)n5)CC4)c(OC)cc3Cl)cc12`: the EC50 was under 250 nM.
Turning to `CNC(=O)c1c(-c2ccc(F)cc2)oc2ccc(-c3cc(C(=O)NC4(c5noc(C)n5)CC4)c(OC)cc3C)cc12`, the EC50 is under 250 nM.
